Strand notation (5' to 3'): a small letter for the sugar, then the base; units joined by * are phosphorothioate-linked, units joined directly phosphodiester-linked; [ ] holds rarer units or linkages, { } end groups; capitals alone tell only the bases. e = 2'-O-(2-methoxyethyl) (MOE); [5mC] = 5-methylcytosine; d = 2'-deoxy (DNA)
What follows are substances tested on human PKK mRNA (assay: Antisense inhibition of human PKK mRNA in HepaRG cells, 5,000 nM (Example 2)). Details: Table 7; HepaRG cells, electroporation with 5,000 nM antisense oligonucleotide, approx. 24 hours; PKK mRNA by RT-PCR (RTS3454), relative to untreated control cells.
Format: cell-based
Protocol: Additional antisense oligonucleotides were designed targeting a PKK nucleic acid and were tested for their effects on PKK mRNA in vitro.
The chimeric antisense oligonucleotides in the tables below were designed as 5-10-5 MOE gapmers, 4-9-4 MOE gapmers, 4-10-4 MOE gapmers, 4-10-3 MOE gapmers, 3-10-4 MOE gapmers, or 3-10-3 MOE gapmers. The 5-10-5 MOE gapmers are 20 nucleosides in length, wherein the central gap segment comprises of ten 2′-deoxynucleosides and is flanked by wing segments on the 5′ direction and the 3′ direction comprising five nucleosides each. The 4-9-4 MOE gapmers are 17 nucleosides in length, wherein the central gap segment comprises of nine 2′-deoxynucleosides and is flanked by wing segments on the 5′ direction and the 3′ direction comprising four nucleosides each. The 4-10-4 MOE gapmers are 18 nucleosides in length, wherein the central gap segment comprises of ten 2′-deoxynucleosides and is flanked by wing segments on the 5′ direction and the 3′ direction comprising four nucleosides each. The 4-10-3 MOE gapmers are 17 nucleosides in length, wherein the central gap segment comprises of ten 2′-deoxynucleosides and is flanked by wing segments on the 5′ direction and the 3′ direction comprising four and three nucleosides respectively. The 3-10-4 MOE gapmers are 17 nucleosides in length, wherein the central gap segment comprises often 2′-deoxynucleosides and is flanked by wing segments on the 5′ direction and the 3′ direction comprising three and four nucleosides respectively. The 3-10-3 MOE gapmers are 16 nucleosides in length, wherein the central gap segment comprises of ten 2′-deoxynucleosides and is flanked by wing segments on the 5′ direction and the 3′ direction comprising three nucleosides each. Each nucleoside in the 5′ wing segment and each nucleoside in the 3′ wing segment has a 2′-O-methoxyethyl modification. The internucleoside linkages throughout each gapmer are phosphorothioate linkages. All cytosine residues throughout each gapmer are 5-methylcytosines. “Start site” indicates the 5′-most nucleoside to which the gapmer is targeted in the human gene sequence. “Stop site” indicates the 3′-most nucleoside to which the gapmer is targeted in the human gene sequence.
Cultured HepaRG™ cells at a density of 20,000 cells per well were transfected using electroporation with 5,000 nM antisense oligonucleotide. After a treatment period of approximately 24 hours, RNA was isolated from the cells and PKK mRNA levels were measured by quantitative real-time PCR. Human primer probe set RTS3454 was used to measure mRNA levels. PKK mRNA levels were adjusted according to total RNA content, as measured by RIBOGREEN®. The antisense oligonucleotides were tested in a series of experiments that had similar culture conditions. Results are presented as percent inhibition of PKK, relative to untreated control cells.

Going from “546249 (e[5mC]*eT*eT*e[5mC]*eT*d[5mC]*d[5mC]*dT*d[5mC]*d[5mC]*dA*dA*dA*dG*dT*e[5mC]*eA*eA*e[5mC]*eT; antisense) [compound 546249]” to “546250 (e[5mC]*eA*eT*eT*e[5mC]*dA*dA*dT*dT*d[5mC]*dT*dT*d[5mC]*dT*d[5mC]*e[5mC]*eT*e[5mC]*e[5mC]*eA; antisense) [compound 546250]”, the “% inhibition” value falls from 68% to 65%.

Same assay, conditions: Table 8; HepaRG cells, electroporation with 5,000 nM antisense oligonucleotide, approx. 24 hours; PKK mRNA by RT-PCR (RTS3454), relative to untreated control cells

Going from “546252 (eT*e[5mC]*eT*eT*eG*dG*d[5mC]*dA*dA*dA*d[5mC]*dA*dT*dT*d[5mC]*eA*e[5mC]*eT*e[5mC]*e[5mC]; antisense) [compound 546252]” to “546256 (eT*e[5mC]*eA*eT*e[5mC]*dT*dT*dT*dG*dT*dG*d[5mC]*dA*dA*dG*eT*e[5mC]*eT*e[5mC]*eT; antisense) [compound 546256]”, the “% inhibition” value rises from 73% to 83%.

First: 546258 (eA*e[5mC]*eA*eG*e[5mC]*dG*dA*dA*dT*d[5mC]*dA*dT*d[5mC]*dT*dT*eT*eG*eT*eG*e[5mC]; antisense) [compound 546258]
Second: 546259 (eA*e[5mC]*eT*eG*eA*d[5mC]*dA*dG*d[5mC]*dG*dA*dA*dT*d[5mC]*dA*eT*e[5mC]*eT*eT*eT; antisense) [compound 546259]
The “% inhibition” value of the first is lower: 74% for the first, 86% for the second.

First: 546260 (eG*eA*eA*eA*eA*dA*d[5mC]*dT*dG*dA*d[5mC]*dA*dG*d[5mC]*dG*eA*eA*eT*e[5mC]*eA; antisense) [compound 546260]
Second: 546263 (eG*eG*eA*eG*eT*dA*dA*dA*dG*dA*dA*dT*dA*dA*dG*eT*eG*eA*eA*eA; antisense) [compound 546263]
The “% inhibition” value of the first is higher: 84% for the first, 0% for the second.

Compared with “546265 (eG*eT*e[5mC]*eT*eT*d[5mC]*dT*dG*dG*dG*dA*dG*dT*dA*dA*eA*eG*eA*eA*eT; antisense) [compound 546265]”, “546266 (eA*e[5mC]*eA*eG*eT*d[5mC]*dT*dT*d[5mC]*dT*dG*dG*dG*dA*dG*eT*eA*eA*eA*eG; antisense) [compound 546266]” is lower in “% inhibition” value: 65% for the first, 63% for the second.

First: 546267 (e[5mC]*e[5mC]*eT*eT*eA*d[5mC]*dA*dG*dT*d[5mC]*dT*dT*d[5mC]*dT*dG*eG*eG*eA*eG*eT; antisense) [compound 546267]
Second: 546270 (eA*e[5mC]*eA*e[5mC]*eT*dT*dA*d[5mC]*dA*d[5mC]*dT*dT*d[5mC]*dT*d[5mC]*eT*eT*e[5mC]*e[5mC]*eT; antisense) [compound 546270]
The “% inhibition” value of the first is higher: 72% for the first, 32% for the second.

Compared with “546271 (eA*eG*eA*eA*eA*d[5mC]*dA*d[5mC]*dT*dT*dA*d[5mC]*dA*d[5mC]*dT*eT*e[5mC]*eT*e[5mC]*eT; antisense) [compound 546271]”, “546275 (eG*eA*eA*e[5mC]*e[5mC]*dA*dT*d[5mC]*d[5mC]*dA*dT*dA*dG*dA*dT*eA*eA*eT*e[5mC]*eT; antisense) [compound 546275]” is higher in “% inhibition” value: 60% for the first, 87% for the second.

First: 546276 (eT*eG*eG*eA*eG*dA*dA*d[5mC]*d[5mC]*dA*dT*d[5mC]*d[5mC]*dA*dT*eA*eG*eA*eT*eA; antisense) [compound 546276]
Second: 546277 (eT*eG*eT*eG*eT*d[5mC]*d[5mC]*d[5mC]*dA*dT*dA*d[5mC]*dG*d[5mC]*dA*eA*eT*e[5mC]*e[5mC]*eT; antisense) [compound 546277]
The “% inhibition” value of the first is lower: 74% for the first, 90% for the second.

Going from “546279 (eG*e[5mC]*eT*e[5mC]*e[5mC]*d[5mC]*dT*dT*dG*dT*dG*dT*d[5mC]*d[5mC]*d[5mC]*eA*eT*eA*e[5mC]*eG; antisense) [compound 546279]” to “546280 (e[5mC]*e[5mC]*eA*eG*eA*dG*d[5mC]*dT*d[5mC]*d[5mC]*d[5mC]*dT*dT*dG*dT*eG*eT*e[5mC]*e[5mC]*e[5mC]; antisense) [compound 546280]”, the “% inhibition” value rises from 82% to 86%.

Going from “546281 (eG*eT*eA*eA*e[5mC]*d[5mC]*dA*dG*dA*dG*d[5mC]*dT*d[5mC]*d[5mC]*d[5mC]*eT*eT*eG*eT*eG; antisense) [compound 546281]” to “546283 (antisense eT*e[5mC]*eT*e[5mC]*eA*dA*dA*dG*dA*dG*dT*dA*dA*d[5mC]*d[5mC]*eA*eG*eA*eG*e[5mC]) [compound 546283]”, the “% inhibition” value rises from 85% to 88%.

First: 546284 (antisense e[5mC]*eA*e[5mC]*eA*eA*dT*d[5mC]*dT*d[5mC]*dA*dA*dA*dG*dA*dG*eT*eA*eA*e[5mC]*e[5mC]) [compound 546284]
Second: 546285 (antisense eG*eT*eT*eA*e[5mC]*dA*d[5mC]*dA*dA*dT*d[5mC]*dT*d[5mC]*dA*dA*eA*eG*eA*eG*eT) [compound 546285]
The “% inhibition” value of the first is higher: 89% for the first, 76% for the second.

Going from “546288 (antisense eG*eT*eT*eT*eG*dT*dT*d[5mC]*d[5mC]*dT*d[5mC]*d[5mC]*dA*dA*d[5mC]*eA*eA*eT*eG*e[5mC]) [compound 546288]” to “546290 (antisense e[5mC]*e[5mC]*e[5mC]*e[5mC]*eA*dA*dG*dA*dA*dG*dA*dG*dT*dT*dT*eG*eT*eT*e[5mC]*e[5mC]) [compound 546290]”, the “% inhibition” value rises from 78% to 86%.

First: 546293 (antisense eG*e[5mC]*e[5mC]*eT*e[5mC]*dT*dG*dA*dG*d[5mC]*dT*dG*dT*d[5mC]*dA*eG*e[5mC]*eT*eT*e[5mC]) [compound 546293]
Second: 546294 (antisense eG*eT*e[5mC]*e[5mC]*eT*dA*dT*dG*dA*dG*dT*dG*dA*d[5mC]*d[5mC]*e[5mC]*eT*e[5mC]*e[5mC]*eA) [compound 546294]
The “% inhibition” value of the first is lower: 64% for the first, 72% for the second.

Compared with “546295 (antisense e[5mC]*e[5mC]*e[5mC]*eA*e[5mC]*dT*dG*dG*dT*dG*dT*d[5mC]*d[5mC]*dT*dA*eT*eG*eA*eG*eT) [compound 546295]”, “546296 (antisense eG*eA*eA*eG*e[5mC]*d[5mC]*d[5mC]*dA*dT*d[5mC]*dA*dA*dA*dG*d[5mC]*eA*eG*eT*eG*eG) [compound 546296]” is lower in “% inhibition” value: 67% for the first, 27% for the second.

Compared with “546297 (antisense eT*eA*eT*eA*eG*dA*dT*dG*d[5mC]*dG*d[5mC]*d[5mC]*dA*dA*dA*e[5mC]*eA*eT*e[5mC]*e[5mC]) [compound 546297]”, “546299 (antisense eA*eT*eG*e[5mC]*e[5mC]*dA*d[5mC]*dT*dA*dT*dA*dG*dA*dT*dG*e[5mC]*eG*e[5mC]*e[5mC]*eA) [compound 546299]” is higher in “% inhibition” value: 82% for the first, 84% for the second.

Going from “546300 (antisense eT*eA*eA*eT*eG*dT*d[5mC]*dT*dG*dA*d[5mC]*dA*dG*dA*dT*eT*eT*eA*eA*eA) [compound 546300]” to “546302 (antisense eT*eG*eA*eG*eA*dA*dA*dG*dG*dT*dG*dT*dA*dT*d[5mC]*eT*eT*eT*eT*eG) [compound 546302]”, the “% inhibition” value rises from 58% to 87%.

For “546303 (antisense eT*eT*eT*eG*eT*dG*dA*dG*dA*dA*dA*dG*dG*dT*dG*eT*eA*eT*e[5mC]*eT) [compound 546303]”, the “% inhibition” value was 77%.

Source: patent publication US11840686B2, “Modulation of prekallikrein (PKK) expression” (Ionis Pharmaceuticals, Inc., priority 2013, dated 2023)
